The values that follow come from ChEMBL document CHEMBL4145445, “Design, synthesis and biological assessment of new thiazolylhydrazine derivatives as selective and reversible hMAO-A inhibitors” (Eur J Med Chem, 2018).

As usually defined, the IC50 is the point on the concentration scale where inhibition reaches its midpoint. Low readings indicate higher potency, high ones lower potency.

The target of data set [1] is T1, Amine oxidase [flavin-containing] A (Homo sapiens, UniProt P21397).
T1 sequence (P21397 whole entry): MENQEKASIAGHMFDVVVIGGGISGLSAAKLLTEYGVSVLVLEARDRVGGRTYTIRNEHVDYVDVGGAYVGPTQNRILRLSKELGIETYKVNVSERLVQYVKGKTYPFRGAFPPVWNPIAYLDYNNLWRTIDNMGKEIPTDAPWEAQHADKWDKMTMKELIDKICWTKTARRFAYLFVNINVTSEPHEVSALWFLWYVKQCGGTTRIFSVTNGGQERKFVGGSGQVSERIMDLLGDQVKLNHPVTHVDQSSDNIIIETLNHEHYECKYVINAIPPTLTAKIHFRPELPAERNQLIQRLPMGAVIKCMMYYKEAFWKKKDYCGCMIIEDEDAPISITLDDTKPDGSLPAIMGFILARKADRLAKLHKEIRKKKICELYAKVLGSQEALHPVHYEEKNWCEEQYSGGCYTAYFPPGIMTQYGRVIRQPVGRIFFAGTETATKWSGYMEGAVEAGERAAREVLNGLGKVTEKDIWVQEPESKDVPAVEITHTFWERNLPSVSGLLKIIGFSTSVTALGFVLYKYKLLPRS
The data set is described as follows: Inhibition of human MAO-A at 10^-4 to 10^-3 M using tyramine hydrochloride as substrate after 30 mins by Amplex Red reagent based horseradish peroxidase enzyme-coupled fluorescence assay relative to control. Particulars: 0.5 h.

Data set [2] has as its target T2, Amine oxidase [flavin-containing] B (Homo sapiens, UniProt P27338).
T2 sequence (P27338 whole entry): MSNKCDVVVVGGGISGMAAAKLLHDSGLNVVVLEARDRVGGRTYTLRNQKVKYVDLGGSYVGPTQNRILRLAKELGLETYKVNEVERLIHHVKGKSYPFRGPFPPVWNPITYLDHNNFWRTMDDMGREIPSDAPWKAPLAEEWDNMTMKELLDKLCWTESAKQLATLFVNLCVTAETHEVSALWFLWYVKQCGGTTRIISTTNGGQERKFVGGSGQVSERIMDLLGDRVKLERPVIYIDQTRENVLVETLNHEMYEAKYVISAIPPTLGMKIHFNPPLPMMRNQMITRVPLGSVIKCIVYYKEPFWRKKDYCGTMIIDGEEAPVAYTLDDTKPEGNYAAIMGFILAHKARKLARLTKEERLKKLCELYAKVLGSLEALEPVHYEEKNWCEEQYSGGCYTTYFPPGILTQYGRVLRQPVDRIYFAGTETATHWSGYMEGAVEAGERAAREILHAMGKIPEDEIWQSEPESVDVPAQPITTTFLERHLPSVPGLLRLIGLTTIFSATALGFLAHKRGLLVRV
Description: Inhibition of human MAO-B using tyramine hydrochloride as substrate after 30 mins by Amplex Red reagent based horseradish peroxidase enzyme-coupled fluorescence assay.

The target of data set [3] is T1, Amine oxidase [flavin-containing] A. Description: Inhibition of human MAO-A using tyramine hydrochloride as substrate after 30 mins by Amplex Red reagent based horseradish peroxidase enzyme-coupled fluorescence assay.
The species named for the next data set is Homo sapiens. The data set is described as follows: Selectivity index, ratio of IC50 for human MAO-B to IC50 for human MAO-A.
Data set [4] has as its target T2, Amine oxidase [flavin-containing] B. Description: Inhibition of human MAO-B at 10^-4 to 10^-3 M using tyramine hydrochloride as substrate after 30 mins by Amplex Red reagent based horseradish peroxidase enzyme-coupled fluorescence assay relative to control. As to conditions: 0.5 h.

As for `Brc1ccc(-c2csc(N/N=C/c3ccc(N4CCOCC4)cc3)n2)cc1`, in data set [1], the “inhibition (INH)” value is reported as greater than 50%. For the same compound, the IC50 in data set [2] was greater than 100 µM; in data set [3], 14.6 µM. Besides, in the data set filed under Homo sapiens, the Ratio IC50 is greater than 6.84.

As to `Fc1ccc(-c2csc(N/N=C/c3ccc(N4CCCC4)cc3)n2)c(F)c1`, the “inhibition (INH)” value in data set [1] and in data set [4] was greater than 50% in each case. For the same compound, the results for the half-maximal inhibitory concentration (IC50) in data set [2] and in data set [3] were 141 µM and 15.6 µM, respectively. Also, the Ratio IC50 in the data set filed under Homo sapiens turned out to be 9.03.

With `N#Cc1ccc(-c2csc(N/N=C/c3ccc(N4CCOCC4)cc3)n2)cc1`, the “inhibition (INH)” value in data set [1] and in data set [4] was greater than 50% throughout. Besides, the IC50 in data set [2] came to 42.9 µM; in data set [3], 54 µM. For the same compound, the Ratio IC50 in the data set filed under Homo sapiens came out at 0.795.

`Brc1ccc(-c2csc(N/N=C/c3ccc(N4CCCC4)cc3)n2)cc1`: the “inhibition (INH)” value in data set [1] is listed as greater than 50%. Moreover, the IC50 is greater than 1000 µM in data set [2] and 61.3 µM in data set [3]. Further, the Ratio IC50 in the data set filed under Homo sapiens is greater than 16.3.

As to `Clc1ccc(-c2csc(N/N=C/c3ccc(N4CCOCC4)cc3)n2)cc1`, the “inhibition (INH)” value in data set [1] and in data set [4] was greater than 50% throughout. In addition, the IC50 in data set [2] came to 558 µM; in data set [3], 10.6 µM. Also, the Ratio IC50 in the data set listed under Homo sapiens turned out to be 52.8.

On to `Cc1ccc(-c2csc(N/N=C/c3ccc(N4CCOCC4)cc3)n2)cc1`, for which the “inhibition (INH)” value in data set [1] is given as greater than 50%. Besides, the IC50 in data set [2] was greater than 1000 µM; in data set [3], 10.4 µM. Moreover, in the data set listed under Homo sapiens, the Ratio IC50 was greater than 96.2.

As to `C(=N\Nc1nc(-c2ccccc2)cs1)/c1ccc(N2CCCC2)cc1`, the “inhibition (INH)” value in data set [1] is reported as greater than 50%. Further, the figures for the IC50 in data set [2] and in data set [3] were greater than 1000 µM and 25.6 µM, respectively. For the same compound, in the data set filed under Homo sapiens, the Ratio IC50 is greater than 39.1.

As for `N#Cc1ccc(-c2csc(N/N=C/c3ccc(N4CCCC4)cc3)n2)cc1`, the “inhibition (INH)” value in data set [1] and in data set [4] was greater than 50% throughout. For the same compound, the concentration for half-maximal inhibition (IC50) stood at 53.1 µM in data set [2] and 66.3 µM in data set [3]. Further, the Ratio IC50 in the data set listed under Homo sapiens came to 0.8.

For the compound `Clc1ccc(-c2csc(N/N=C/c3ccc(N4CCCC4)cc3)n2)c(Cl)c1`, the “inhibition (INH)” value in data set [1] and in data set [4] was greater than 50% each time. Further, the values for the IC50 in data set [2] and in data set [3] were 131 µM and 103 µM, respectively. Also, in the data set filed under Homo sapiens, the Ratio IC50 was 1.26.

On to `Clc1ccc(-c2csc(N/N=C/c3ccc(N4CCCC4)cc3)n2)cc1`, for which the “inhibition (INH)” value in data set [1] and in data set [4] was greater than 50% each time. Further, the IC50 in data set [2] came to 761 µM; in data set [3] it was 45.1 µM. For the same compound, in the data set filed under Homo sapiens, the Ratio IC50 is 16.9.

Turning to `Cc1ccc(-c2csc(N/N=C/c3ccc(N4CCCC4)cc3)n2)cc1`, in data set [1], the “inhibition (INH)” value is greater than 50%. Further, the results for the IC50 in data set [2] and in data set [3] were greater than 100 µM and 20 µM, respectively. In addition, the Ratio IC50 in the data set filed under Homo sapiens was greater than 4.99.

Take `Fc1ccc(-c2csc(N/N=C/c3ccc(N4CCCC4)cc3)n2)cc1`: the “inhibition (INH)” value in data set [1] and in data set [4] was greater than 50% in each case. Moreover, the results for the IC50 in data set [2] and in data set [3] were 426 µM and 13.1 µM, respectively. In addition, the Ratio IC50 in the data set listed under Homo sapiens came to 32.5.

As for `C(=N\Nc1nc(-c2ccccc2)cs1)/c1ccc(N2CCOCC2)cc1`, the “inhibition (INH)” value in data set [1] is greater than 50%. Besides, the IC50 in data set [2] is greater than 1000 µM; in data set [3] it was 11.4 µM. Besides, the Ratio IC50 in the data set listed under Homo sapiens was greater than 87.8.

With `Clc1ccc(-c2csc(N/N=C/c3ccc(N4CCOCC4)cc3)n2)c(Cl)c1`, the “inhibition (INH)” value in data set [1] and in data set [4] was greater than 50% each time. The results for the half-inhibitory concentration (IC50) in data set [2] and in data set [3] were 133 µM and 85.4 µM, respectively. Moreover, in the data set listed under Homo sapiens, the Ratio IC50 came to 1.56.
